Assay: Osmotic pressure of the drug in water
Format: physicochemical
Conditions: in water at room temperature
Excerpt: As an example of this discovery, the inventors selected leuprolide acetate as a sample compound. The inventors then experimentally determined that the osmotic pressure of leuprolide acetate in water is approximately 5 atmospheres at room temperature.
“Osmotic pressure of the drug” means the pressure that must be applied to a solution to prevent the net flow of solvent molecules (such as water) through a semipermeable membrane from a solution of lower drug concentration to a solution of higher drug concentration. The osmotic pressure of the drug can be experimentally determined with use of a vapor pressure osmometer, such as the Vapro® vapor pressure osmometer.

SMILES: CCNC(=O)[C@@H]1CCCN1C(=O)[C@H](CCCNC(=N)N)NC(=O)[C@H](CC(C)C)NC(=O)[C@@H](CC(C)C)NC(=O)[C@H](Cc1ccc(O)cc1)NC(=O)[C@H](CO)NC(=O)[C@H](Cc1c[nH]c2ccccc12)NC(=O)[C@H](Cc1c[nH]cn1)NC(=O)[C@@H]1CCC(=O)N1 [leuprolide acetate]
- osmotic pressure: approximately 5 atmospheres
